Measured values: patent US8461181B2, “Fused heterocyclic compound and use thereof” (Sumitomo Chemical Company, Ltd., priority 2009, dated 2013)

How the values were obtained:
Format in all cases: in vivo
[1] = tested on: Nilaparvata lugens; experiment: Test Example 9: foot drench of rice seedling, twenty first instar larvae of Nilaparvata lugens; settings: soil, 144 h, 5 ml drench at foot of rice seedling, kept 7 days, twenty first instar larvae released, further 6 days
Procedure: The formulations of the present active compounds (6), (7), (18), (22), (25), (30), (33), (46), (47), (53), (101) to (103), (106), (121) to (124), (126) to (128), (135), (139), (216) and (217) obtained by Formulation Example 5 were diluted with water so that the active ingredient concentration was 500 ppm, to prepare diluted solutions for test. Separately, a rice seedling (2 weeks after sowing, second leaf spreading stage) planted on a plastic cup was drenched at its foot with each 5 ml of the diluted solutions, and kept in a greenhouse of 25° C. for 7 days. Twenty first instar larvae of Nilaparvata lugens were released, and further kept in the greenhouse for 6 days, then, the number of insect of living Nilaparvata lugens […] on rice was checked, and the control value was calculated according to the following formula. Control value (%)={1-(Cb×Tai)/(Cai×Tb)}×100 Letters in the formula represent the following meanings. Cb: the number of insect before treatment on non-treated district Cai: the number of insect in observation on non-treated district Tb: the number of insect before treatment on treated district Tai: the number of insect in observation on treated district

[2] = tested on: Nilaparvata lugens; experiment: Test Example 8: spray on rice seedling, 20 first instar larvae of Nilaparvata lugens; settings: 144 h, 10 ml sprayed on rice seedling, 20 first instar larvae released, 6 days at 25° C.
Procedure: The formulations of the present active compounds (6), (7), (18), (21), (24), (25), (28) to (30), (32), (46), (52), (101) to (103), (105) to (107), (111), (112), (115), (119) to (124), (126) to (130), (133) to (135), (139), (142), (144) to (146), (149) to (151), (153), (154), (216) and (217) obtained by Formulation Example 5 were diluted with water so that the active ingredient concentration was 500 ppm, to prepare spray solutions for test. Separately, on a rice seedling (2 weeks after sowing, second leaf spreading stage) planted on a plastic cup, the drug solutions for test prepared as described above were sprayed each in an amount of 10 ml. After drying of the drug solution sprayed on rice, 20 first instar larvae of Nilaparvata lugens were released, and kept in a greenhouse of 25° C. for 6 days. Thereafter, the number of Nilaparvata lugens […] on rice was checked, and the control value was calculated according to the following formula. Control value (%)={1-(Cb×Tai)/(Cai×Tb)}×100 Letters in the formula represent the following meanings. Cb: the number of insect before treatment on non-treated district Cai: the number of insect in observation on non-treated district Tb: the number of insect before treatment on treated district Tai: the number of insect in observation on treated district

[3] = tested on: Aphis gossypii; experiment: Test Example 2: foot drench of cucumber seedling on urethane mat, Aphis gossypii; settings: soil, 168 h, 5 ml drench at foot of cucumber seedling on urethane mat, inoculated one day after treatment, checked seven days after
Procedure: The formulations of the present active compounds (4), (5), (8), (9), (11), (12), (14), (15), (17), (20), (35) to (45), (48) to (51), (54) to (56), (206), (209) and (211) to (213) obtained by Formulation Example 5 were diluted with water so that the active ingredient concentration was 500 ppm, to prepare diluted solutions for test. Separately, a cucumber seedling (second true leaf spreading stage) planted on a urethane mat was drenched at its foot with each 5 ml of the diluted solutions, and one day after treatment, the cucumber leaf surface was inoculated with 30 Aphis gossypii (whole stage). Further seven days after, the number of insect of living Aphis gossypii […] on the leaves of this cucumber was checked, and the control value was calculated according to the following formula. Control value (%)={1-(Cb×Tai)/(Cai×Tb)}×100 Letters in the formula represent the following meanings. Cb: the number of insect before treatment on non-treated district Cai: the number of insect in observation on non-treated district Tb: the number of insect before treatment on treated district Tai: the number of insect in observation on treated district

[4] = tested on: Aphis gossypii; experiment: Test Example 4: foot drench of cucumber seedling in plastic cup, inoculation after 7 days, Aphis gossypii; settings: soil, 144 h, 5 ml drench at foot of cucumber seedling in plastic cup, kept 7 days at 25° C., inoculated, further 6 days
Procedure: The formulations of the present active compounds (3) to (7), (17), (19), (20), (22), (29) to (31), (35) to (37), (39), (41) to (45), (47) to (56), (101), (106), (121) to (123), (128), (131), (137), (139), (143), (145), (147), (211) to (213), (216) and (217) obtained by Formulation Example 5 were diluted with water so that the active ingredient concentration was 500 ppm, to prepare diluted solutions for test. Separately, a cucumber seedling (second true leaf spreading stage) planted on a plastic cup was drenched at its foot with each 5 ml of the diluted solutions, and kept in a greenhouse of 25° C. for 7 days. The cucumber leaf surface was inoculated with 30 Aphis gossypii (whole stage), and further kept in the greenhouse for 6 days, then, the number of insect of living Aphis gossypii […] on the leaves of this cucumber was checked, and the control value was calculated according to the following formula. Control value (%)={1-(Cb×Tai)/(Cai×Tb)}×100 Letters in the formula represent the following meanings. Cb: the number of insect before treatment on non-treated district Cai: the number of insect in observation on non-treated district Tb: the number of insect before treatment on treated district Tai: the number of insect in observation on treated district

[5] = tested on: Aphis gossypii; experiment: Test Example 3: root immersion of cucumber seedling, Aphis gossypii; settings: 168 h, cucumber root part immersed in 5 ml, inoculated one day after treatment, checked seven days after
Procedure: The formulations of the present active compounds (18), (19), (21), (22), (24), (25), (28), (31) to (34), (46), (47), (52), (53), (101) to (104), (106) to (108), (112) to (114), (117), (118), (122), (123), (126), (128), (129), (133), (134), (138), (144), (153) to (155) and (157) obtained by Formulation Example 5 were diluted with water so that the active ingredient concentration was 500 ppm, to prepare diluted solutions for test. A root part of a cucumber seedling (first true leaf spreading stage) from which soil had been washed off was immersed in 5 ml of this diluted solution, and one day after treatment, the cucumber leaf surface was inoculated with 30 Aphis gossypii (whole stage). Further seven days after, the number of insect of living Aphis gossypii […] on the leaves of this cucumber was checked, and the control value was calculated according to the following formula. Control value (%)={1-(Cb×Tai)/(Cai×Tb)}×100 Letters in the formula represent the following meanings. Cb: the number of insect before treatment on non-treated district Cai: the number of insect in observation on non-treated district Tb: the number of insect before treatment on treated district Tai: the number of insect in observation on treated district

SMILES | pest or weed control at 500 ppm [1] [%] | pest or weed control at 500 ppm [2] [%] | pest or weed control at 500 ppm [3] [%] | pest or weed control at 500 ppm [4] [%] | pest or weed control at 500 ppm [5] [%]
CCc1cnccc1-c1nc2cc(C(F)(F)F)ccc2n1C [present active compound 7, 2-(3-ethylpyridin-4-yl)-1-methyl-5-trifluoromethyl-1H-benzimidazole] | ≥ 90 | ≥ 90 | – | – | –
Cn1c(-c2ccncc2OC(C)(C)C)nc2cc(C(F)(F)F)ccc21 [present active compound 12, 2-(3-tert-butoxypyridin-4-yl)-1-methyl-5-trifluoromethyl-1H-benzimidazole] | – | – | ≥ 90 | – | –
CCOc1cnccc1-c1nc2cc(C(F)(F)F)ccc2n1C [present active compound 9, 2-(3-ethoxypyridin-4-yl)-1-methyl-5-trifluoromethyl-1H-benzimidazole] | – | – | ≥ 90 | – | –
Cn1c(-c2ccncc2F)nc2cc(C(F)(F)F)ccc21 [present active compound 4, 2-(3-fluoropyridin-4-yl)-1-methyl-5-trifluoromethyl-1H-benzimidazole] | – | – | ≥ 90 | – | –
CCc1cnccc1-c1nc2cc(C(F)(F)F)cnc2n1C [present active compound 217, 2-(3-ethylpyridin-4-yl-)-3-methyl-6-trifluoromethyl-3H-imidazo[4,5-b]pyridine] | ≥ 90 | ≥ 90 | – | ≥ 90 | –
COCCOc1cnccc1-c1nc2cc(C(F)(F)F)cnc2n1C [present active compound 46, 2-[3-(2-methoxyethoxy)-pyridin-4-yl]-3-methyl-6-trifluoromethyl-3H-imidazo[4,5-b]pyridine] | ≥ 90 | ≥ 90 | – | – | ≥ 90
Cc1cnccc1-c1nc2cc(C(F)(F)F)ccc2n1C [present active compound 6, 1-methyl-2-(3-methylpyridin-4-yl)-5-trifluoromethyl-1H-benzimidazole] | ≥ 90 | ≥ 90 | – | – | –
Cn1c(-c2ccncc2Cl)nc2cc(C(F)(F)F)ccc21 [present active compound 5, 2-(3-chloropyridin-4-yl)-1-methyl-5-trifluoromethyl-1H-benzimidazole] | – | – | ≥ 90 | – | –
Cn1c(-c2ccncc2[S+](C)[O-])nc2cc(C(F)(F)F)ccc21 (centres unmarked) [present active compound 18, 2-(3-methanesulfinylpyridin-4-yl)-1-methyl-5-trifluoromethyl-1H-benzimidazole] | ≥ 90 | ≥ 90 | – | – | ≥ 90
CN(C)C(=O)c1cnccc1-c1nc2cc(C(F)(F)F)cnc2n1C [present active compound 139] | ≥ 90 | ≥ 90 | – | ≥ 90 | –
CCS(=O)(=O)c1cnccc1-c1nc2cc(C(F)(F)F)ccc2n1C [present active compound 22, 2-(3-ethanesulfonylpyridin-4-yl)-1-methyl-5-trifluoromethyl-1H-benzimidazole] | ≥ 90 | – | – | ≥ 90 | ≥ 90
Cn1c(-c2ccncc2OCCF)nc2cc(C(F)(F)F)ccc21 [present active compound 15, 2-[3-(2-fluoroethoxy)-pyridin-4-yl]-1-methyl-5-trifluoromethyl-1H-benzimidazole] | – | – | ≥ 90 | – | –
CCOCCOc1cnccc1-c1nc2cc(C(F)(F)F)cnc2n1C [present active compound 47, 2-[3-(2-ethoxyethoxy)-pyridin-4-yl]-3-methyl-6-trifluoromethyl-3H-imidazo[4,5-b]pyridine] | ≥ 90 | – | – | – | ≥ 90
Cc1cnccc1-c1nc2cc(C(F)(F)F)cnc2n1C [present active compound 216, 3-methyl-2-(3-methylpyridin-4-yl-)-6-trifluoromethyl-3H-imidazo[4,5-b]pyridine] | ≥ 90 | ≥ 90 | – | ≥ 90 | –
